Measured values: ChEMBL document CHEMBL5532715, “Rogersonins C-F, 9H-Imidazo[2,1-i]purine-Incorporating Adenine-Polyketide Hybrids from an Ophiocordyceps-Associated Clonostachys rogersoniana” (2024)
Active and inactive are the calls of the source. No cut-off for these calls is given here.

Legend:
[1] = Downregulation of cell surface PD-L1 protein expression in human A549 cells assessed as test to control ratio at 10 uM incubated for 24 hrs by Western blot analysis; type: functional
[2] = Downregulation of cell surface PD-L1 protein expression in human MDA-MB-231 cells assessed as test to control ratio at 5 uM incubated for 24 hrs by Western blot analysis; type: functional
[3] = Downregulation of cell surface PD-L1 protein expression in human A549 cells assessed as test to control ratio at 5 uM incubated for 24 hrs by Western blot analysis; type: functional
[4] = Downregulation of cell surface PD-L1 expression in human MDA-MB-231 cells assessed as mean fluorescence intensity at 5 uM incubated for 24 hrs by phycoerythrin staining based flow cytometry analysis (reference value: 1156); type: functional
[5] = Downregulation of cell surface PD-L1 protein expression in human MDA-MB-231 cells assessed as test to control ratio at 10 uM incubated for 24 hrs by Western blot analysis; type: functional
MDA-MB-231 [6] = experiment: Antiproliferative activity against human MDA-MB-231 cells incubated for 72 hrs by MTT assay; type: functional, cell-based
A549 [7] = experiment: Antiproliferative activity against human A549 cells incubated for 72 hrs by MTT assay; type: functional, cell-based
A549 [8] = experiment: Effect on CD274 mRNA expression in human A549 cells at 5 to 10 uM hrs by real-time quantitative-PCR analysis; type: functional, cell-based; conditions: dose 5-10 µM
MDA-MB-231 [9] = experiment: Effect on CD274 mRNA expression in human MDA-MB-231 cells at 5 to 10 uM hrs by real-time quantitative-PCR analysis; type: functional, cell-based; conditions: dose 5-10 µM
[10] = Downregulation of cell surface PD-L1 expression in human MDA-MB-231 cells assessed as mean fluorescence intensity at 10 uM incubated for 24 hrs by phycoerythrin staining based flow cytometry analysis (reference value: 1156); type: functional
MCF7 = experiment: Antiproliferative activity against human MCF7 cells incubated for 72 hrs by MTT assay; type: functional, cell-based
[11] = Downregulation of cell surface PD-L1 expression in human MDA-MB-231 cells assessed as mean fluorescence intensity at […] incubated for 24 hrs by phycoerythrin staining based flow cytometry analysis (reference value: 1156); type: functional

SMILES	T/C [1]	T/C [2]	T/C [3]	Flu intensity [4]	T/C [5]	Activity (MDA-MB-231 [6])	Activity (A549 [7])	Activity (A549 [8])	Activity (MDA-MB-231 [9])	Flu intensity [10]	Activity (MCF7)	Flu intensity [11]
C[C@@H]1OC(=O)/C=C/[C@@H](O)CC[C@H](C)OC(=O)Cc2c1nc1c3ncn([C@@H]4O[C@H](CO)[C@@H](O)[C@H]4O)c3ncn21	0.32	0.89	0.6	897	0.54	inactive	inactive	inactive	inactive	820	inactive	–
CO[C@@H]1[C@H](O)[C@@H](CO)O[C@H]1n1cnc2c1ncn1c3c(nc21)[C@H](C)OC(=O)/C=C/[C@@H](O)CC[C@H](C)OC(=O)C3	–	–	–	–	–	inactive	inactive	–	–	–	inactive	–
C[C@@H]1OC(=O)/C=C/[C@@H](O)CC[C@H](C)OC(=O)[C@H](n2cnc3c2ncn2c4c(nc32)[C@H](C)OC(=O)/C=C/[C@@H](O)CC[C@H](C)OC(=O)C4)CC1=O	–	–	–	–	–	inactive	inactive	–	–	–	inactive	–
C[C@@H]1OC(=O)/C=C/[C@@H](O)CC[C@H](C)OC(=O)[C@H](n2cnc3ncn4c5c(nc4c32)[C@H](C)OC(=O)/C=C/[C@@H](O)CC[C@H](C)OC(=O)C5)CC1=O	–	–	–	–	–	inactive	inactive	–	–	–	inactive	–
CN(C)C(=N)NC(=N)N [METFORMIN]	–	–	–	–	–	–	–	–	–	–	–	1081
